Results taken from ChEMBL document CHEMBL1158753, “Ammodendrine and N-methylammodendrine enantiomers: isolation, optical rotation, and toxicity” (J Nat Prod, 2005).

Assay: […] against iv dosed Swiss-Webster mouse
Type: organism-based
Details: in vivo

Q: With `CC(=O)N1C=C([C@H]2CCCCN2)CCC1` as the molecule, how does the LD50 read?
A: 94.1 mg/kg

Q: For `CC(=O)N1C=C([C@@H]2CCCCN2)CCC1`, which LD50 is on record?
A: 115 mg/kg

Q: With `CC(=O)N1C=C([C@@H]2CCCCN2C)CCC1` as the molecule, how does the LD50 read?
A: 63.4 mg/kg

Q: Which LD50 does the source give for `CC(=O)N1C=C([C@H]2CCCCN2C)CCC1` here?
A: 56.3 mg/kg
